This is an account of results in PubChem BioAssay (NCI).

SMILES strings stand for the structures. Values after ≈ are worked out from the molar mass of the structure shown.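 Protocol summary: plate cells (96-well), add compound at 5 concentrations, incubate 48 h, interpolate endpoints linearly. GI50: concentration for 50% inhibition of growth. Definition used: TGI = concentration required for complete inhibition of growth.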 Active and inactive are the calls of the source. Cut-off read from the data, not from the text of the source: active = GI50 below about 0.43 µM; inactive = the rest.

In the first experiment the test system is SNB-78 CNS. In words: NCI anticancer screen, dose series, 48 h.
As for `CC12CC3(C)CC(C)(C1)CC(N=[N+]=[N-])(C2)C3`, the TGI was over 100 µM.

With `Fc1cccc(Cl)c1C1SCc2nc3ccccc3n21` (stereo unspecified), the TGI was 73.8 µM.

In the case of `COc1cc2nncc(Sc3cnnc4ccccc34)c2cc1OC`, the TGI stood at 92.4 µM.

In turn, `CC(=O)N(CCN)CCN` displayed a TGI of over 10 µM.

`Cc1cc(O)c2c(c1)C(O)(c1ccc3c(c1O)C(=O)c1c(O)cc(C)cc1C3(O)C1OC(CO)C(O)C(O)C1O)c1cccc(O)c1C2=O` (stereo unspecified) had a TGI of 36.1 µM.

`CCc1ccccc1NC(=O)C(=O)C(C(=O)c1ccc(OC)cc1)c1ccc(OC)cc1` (stereo unspecified) displayed a TGI of over 100 µM.

`C=C(C)C1CC2C(C)=C(OC(C)=O)C1n1c(=O)c3cc4ccccc4cc3c(=O)n12` (stereo unspecified) showed a TGI of over 100 µM.

Turning to `O=C(CCc1nc(=S)[nH][nH]1)NC12CC3CC(CC(C3)C1)C2`, the TGI was over 100 µM.

Take `CSc1ccc(/C=C2\CNC/C(=C\c3ccc(SC)cc3)C2=O)cc1`: the GI50 was 28.8 mg/L (≈ 78.3 µM) and the TGI is 150 mg/L.

Consider `CSc1nc2c(c(O)c(C)c(=O)n2C2OC(COC(C)=O)C(OC(C)=O)C(OC(C)=O)C2OC(C)=O)c(=O)n1C` (stereo unspecified), for which the TGI is over 100 µM.

Regarding `Cc1c(C)c2cc3c(=O)ccoc3c(C)c2oc1=O`, the TGI is over 100 µM.

In another experiment the test system is KM20L2 colon. The experiment can be described thus: NCI anticancer screen, dose series, 48 h.
Consider `Nc1nc2c(ncn2Cc2ccccc2CCO)c(=O)[nH]1`, for which the TGI was over 100 µM.

Regarding `O=[N+]([O-])c1ccc(N=Nc2c(O)[nH]c3ccc([N+](=O)[O-])cc23)cc1`, the TGI is 63.7 µM.

As for `Fc1cccc(Cl)c1C1SCc2nc3ccccc3n21` (stereo unspecified), the TGI turned out to be 49.7 µM.

`COc1cc2nncc(Sc3cnnc4ccccc34)c2cc1OC` gave a TGI of 68.3 µM.

In turn, `CC(=O)N(CCN)CCN` displayed a TGI of over 10 µM.

With `Cc1cc(O)c2c(c1)C(O)(c1ccc3c(c1O)C(=O)c1c(O)cc(C)cc1C3(O)C1OC(CO)C(O)C(O)C1O)c1cccc(O)c1C2=O` (stereo unspecified), the TGI came to 36 µM.

`CCc1ccccc1NC(=O)C(=O)C(C(=O)c1ccc(OC)cc1)c1ccc(OC)cc1` (stereo unspecified) gave a TGI of over 100 µM.

With `C/C(=N/N(C=O)C[n+]1ccccc1)C(CN(CC(C)C)CC(C)C)C(=O)Nc1ccc(C)cc1C` (stereo unspecified), the TGI is over 100 µM.

The compound `C=C(C)C1CC2C(C)=C(OC(C)=O)C1n1c(=O)c3cc4ccccc4cc3c(=O)n12` (stereo unspecified) gave a TGI of over 100 µM.

With `O=C(CCc1nc(=S)[nH][nH]1)NC12CC3CC(CC(C3)C1)C2`, the TGI is over 100 µM.

Consider `CSc1ccc(/C=C2\CNC/C(=C\c3ccc(SC)cc3)C2=O)cc1`, for which the result was inactive.

Take `CSc1nc2c(c(O)c(C)c(=O)n2C2OC(COC(C)=O)C(OC(C)=O)C(OC(C)=O)C2OC(C)=O)c(=O)n1C` (stereo unspecified): the TGI is over 100 µM.

Take `Cc1c(C)c2cc3c(=O)ccoc3c(C)c2oc1=O`: the TGI was over 100 µM.

In a further experiment the test system is DMS 273 small cell lung. In words: NCI anticancer screen, dose series, 48 h.
Turning to `Nc1nc2c(ncn2Cc2ccccc2CCO)c(=O)[nH]1`, the TGI was over 100 µM.

In turn, `O=[N+]([O-])c1ccc(N=Nc2c(O)[nH]c3ccc([N+](=O)[O-])cc23)cc1` displayed a TGI of 33.6 µM.

`CC12CC3(C)CC(C)(C1)CC(N=[N+]=[N-])(C2)C3` gave a TGI of over 100 µM.

For `Fc1cccc(Cl)c1C1SCc2nc3ccccc3n21` (stereo unspecified), the TGI was determined as 57.9 µM.

Take `COc1cc2nncc(Sc3cnnc4ccccc34)c2cc1OC`: the TGI is 81.7 µM.

For `CC(=O)N(CCN)CCN`, the TGI was over 10 µM.

In turn, `Cc1cc(O)c2c(c1)C(O)(c1ccc3c(c1O)C(=O)c1c(O)cc(C)cc1C3(O)C1OC(CO)C(O)C(O)C1O)c1cccc(O)c1C2=O` (stereo unspecified) returned a TGI of 30.4 µM.

Regarding `CCc1ccccc1NC(=O)C(=O)C(C(=O)c1ccc(OC)cc1)c1ccc(OC)cc1` (stereo unspecified), the TGI was over 100 µM.

`C=C(C)C1CC2C(C)=C(OC(C)=O)C1n1c(=O)c3cc4ccccc4cc3c(=O)n12` (stereo unspecified) came in with a TGI of over 100 µM.

Compound `O=C(CCc1nc(=S)[nH][nH]1)NC12CC3CC(CC(C3)C1)C2` registered a TGI of over 100 µM.

As for `CSc1ccc(/C=C2\CNC/C(=C\c3ccc(SC)cc3)C2=O)cc1`, the GI50 is 46.2 mg/L (≈ 126 µM) and the TGI was 150 mg/L.

In turn, `CSc1nc2c(c(O)c(C)c(=O)n2C2OC(COC(C)=O)C(OC(C)=O)C(OC(C)=O)C2OC(C)=O)c(=O)n1C` (stereo unspecified) gave a TGI of over 100 µM.

The next experiment relates to RXF-631 renal. In words: NCI anticancer screen, dose series, 48 h.
For the compound `Nc1nc2c(ncn2Cc2ccccc2CCO)c(=O)[nH]1`, the TGI is over 100 µM.

The compound `O=[N+]([O-])c1ccc(N=Nc2c(O)[nH]c3ccc([N+](=O)[O-])cc23)cc1` yielded a TGI of 62.7 µM.

As for `CC12CC3(C)CC(C)(C1)CC(N=[N+]=[N-])(C2)C3`, the TGI was over 100 µM.

In the case of `Fc1cccc(Cl)c1C1SCc2nc3ccccc3n21` (stereo unspecified), the TGI was over 100 µM.

As for `COc1cc2nncc(Sc3cnnc4ccccc34)c2cc1OC`, the TGI amounted to 53.6 µM.

The compound `CC(=O)N(CCN)CCN` gave a TGI of over 10 µM.

`Cc1cc(O)c2c(c1)C(O)(c1ccc3c(c1O)C(=O)c1c(O)cc(C)cc1C3(O)C1OC(CO)C(O)C(O)C1O)c1cccc(O)c1C2=O` (stereo unspecified) yielded a TGI of 29.5 µM.

In turn, `CCc1ccccc1NC(=O)C(=O)C(C(=O)c1ccc(OC)cc1)c1ccc(OC)cc1` (stereo unspecified) gave a TGI of over 100 µM.

Take `C/C(=N/N(C=O)C[n+]1ccccc1)C(CN(CC(C)C)CC(C)C)C(=O)Nc1ccc(C)cc1C` (stereo unspecified): the TGI was over 100 µM.

With `O=C(CCc1nc(=S)[nH][nH]1)NC12CC3CC(CC(C3)C1)C2`, the TGI is over 100 µM.

`CSc1ccc(/C=C2\CNC/C(=C\c3ccc(SC)cc3)C2=O)cc1` registered a TGI of 175 µM.

For the compound `CSc1nc2c(c(O)c(C)c(=O)n2C2OC(COC(C)=O)C(OC(C)=O)C(OC(C)=O)C2OC(C)=O)c(=O)n1C` (stereo unspecified), the TGI is over 100 µM.

As for `Cc1c(C)c2cc3c(=O)ccoc3c(C)c2oc1=O`, the TGI was over 100 µM.
